Test results reported in ChEMBL document CHEMBL1772993, “Design and synthesis of novel N-hydroxy-dihydronaphthyridinones as potent and orally bioavailable HIV-1 integrase inhibitors” (J Med Chem, 2011).

Test: Octanol-buffer distribution coefficient, log D of the compound at pH 7.4
Format: physicochemical
Details: not given

In order of rising logD:
1. O=C(O)CCc1cn(Cc2ccc(F)cc2)c2cnc3c(c12)CCN(O)C3=O  -0.74
2. O=C1c2ncc3c(c(CCCN4CCOCC4)cn3Cc3ccc(F)cc3)c2CCN1O  0.1
3. O=C1c2ncc3c(c(S(=O)(=O)N4CCOCC4)cn3Cc3ccc(F)cc3)c2CCN1O  0.18
4. O=C1c2ncc3c(ccn3Cc3ccc(F)cn3)c2CCN1O  0.6
5. CN(CCO)Cc1cn(Cc2ccc(F)cc2)c2cnc3c(c12)CCN(O)C3=O  0.67
6. CC(=O)N(C)CCCc1cn(Cc2ccc(F)cc2)c2cnc3c(c12)CCN(O)C3=O  0.76
7. O=C1c2ncc3c(ccn3Cc3ncc(F)cc3F)c2CCN1O  0.77
8. CN(C)Cc1cn(Cc2ccc(F)cc2)c2cnc3c(c12)CCN(O)C3=O  0.89
9. COCCN(C)S(=O)(=O)c1cn(Cc2ccc(F)cc2)c2cnc3c(c12)CCN(O)C3=O  1.14
10. N#Cc1cc(F)ccc1Cn1ccc2c3c(ncc21)C(=O)N(O)CC3  1.15
11. O=C1c2ncc3c(c(CN4CCCCC4)cn3Cc3ccc(F)cc3)c2CCN1O  1.15
12. CN(C)S(=O)(=O)c1cn(Cc2ccc(F)cc2)c2cnc3c(c12)CCN(O)C3=O  1.29
13. O=C1c2ncc3c(ccn3Cc3ccc(F)cc3)c2CCN1O  1.39
14. COCCN(C)Cc1cn(Cc2ccc(F)cc2)c2cnc3c(c12)CCN(O)C3=O  1.46
15. CN(Cc1cn(Cc2ccc(F)cc2)c2cnc3c(c12)CCN(O)C3=O)CC1CC1  1.52
16. O=C1c2ncc3c(c(COCCc4ccccn4)cn3Cc3ccc(F)cc3)c2CCN1O  1.56
17. O=C1c2ncc3c(c(COCc4ccccn4)cn3Cc3ccc(F)cc3)c2CCN1O  1.63
18. O=C1c2ncc3c(c(S(=O)(=O)N4CCCC4)cn3Cc3ccc(F)cc3)c2CCN1O  1.63
19. CC(C)(O)CCc1cn(Cc2ccc(F)cc2)c2cnc3c(c12)CCN(O)C3=O  1.67
20. CN(O)C(=O)c1cc2c(CN3CCC[C@H]3C(N)=O)cn(Cc3ccc(F)cc3)c2cn1  1.7
21. N#Cc1c(Cn2ccc3c4c(ncc32)C(=O)N(O)CC4)ccc(F)c1Cl  1.7
22. O=C1c2ncc3c(c(COCC4CCOCC4)cn3Cc3ccc(F)cc3)c2CCN1O  1.83
23. O=C1c2ncc3c(c(CN4CCC(F)(F)C4)cn3Cc3ccc(F)cc3)c2CCN1O  2.02
24. CN(O)C(=O)c1cc2ccn(Cc3ccc(F)cc3)c2cn1  2.04
25. O=C1c2ncc3c(c(CCCOC4CCOCC4)cn3Cc3ccc(F)cc3)c2CCN1O  2.1
26. CC(C)OCCOCc1cn(Cc2ccc(F)cc2)c2cnc3c(c12)CCN(O)C3=O  2.12
27. CC1CCN(S(=O)(=O)c2cn(Cc3ccc(F)cc3)c3cnc4c(c23)CCN(O)C4=O)CC1  2.14
28. O=C1c2ncc3c(c(COCCCc4ccccn4)cn3Cc3ccc(F)cc3)c2CCN1O  2.15
29. O=C1c2ncc3c(c(CCC(F)(F)F)cn3Cc3ccc(F)cc3)c2CCN1O  2.32
30. O=C1c2ncc3c(c(COCc4ccccc4F)cn3Cc3ccc(F)cc3)c2CCN1O  2.47

Test: Clearance in dog
Format: ADME, organism-based, Canis lupus familiaris
Details: in vivo

In the case of `CN(O)C(=O)c1cc2c(CN3CCC[C@H]3C(N)=O)cn(Cc3ccc(F)cc3)c2cn1`, the clearance is reported as 15 mL/min/kg.

Test: Clearance in dog at 1 mg/kg, iv and 4.2 mg/kg, po
Format: ADME, organism-based, Canis lupus familiaris
Details: in vivo

`O=C1c2ncc3c(c(CN4CCCCC4)cn3Cc3ccc(F)cc3)c2CCN1O` showed a clearance of 30 mL/min/kg.

Test: Volume of distribution at steady state in dog at 1 mg/kg, iv and 4.2 mg/kg, po
Format: ADME, organism-based, Canis lupus familiaris
Details: in vivo, read-out: Vdss

Molecule `O=C1c2ncc3c(c(CN4CCCCC4)cn3Cc3ccc(F)cc3)c2CCN1O` has a Vd of 6.7 L/kg.

Test: Half life in dog at 1 mg/kg, iv and 4.2 mg/kg, po
Format: ADME, organism-based, Canis lupus familiaris
Details: in vivo

In the case of `O=C1c2ncc3c(c(CN4CCCCC4)cn3Cc3ccc(F)cc3)c2CCN1O`, the half-life is reported as 2.6 h.

Test: Oral bioavailability in dog at 4.2 mg/kg
Format: ADME, organism-based, Canis lupus familiaris
Details: in vivo

Molecule `O=C1c2ncc3c(c(CN4CCCCC4)cn3Cc3ccc(F)cc3)c2CCN1O` has a bioavailability of 33%.
